The source made the active and inactive calls. The calls are words filed in the database; no cut-off is given here.
Legend:
[1] = biological target: T1, Polypeptide N-acetylgalactosaminyltransferase 2 (Homo sapiens, UniProt Q10471); assay: Binding affinity of human recombinant FLAG-tagged ppGalNAcT2 expressed in HEK293 cells assessed as dissociation constant by SPR analysis
[2] = biological target: T1, Polypeptide N-acetylgalactosaminyltransferase 2; assay: Inhibition of ppGalNAcT2 in human HT-29 cells assessed as reduction in O-GalNAc glycans by measuring PNA lectin signal on cell surface at 40 uM incubated for 48 hrs by DAPI staining based immunofluorescence method
[3] = biological target: T1, Polypeptide N-acetylgalactosaminyltransferase 2; assay: Binding affinity of human recombinant FLAG-tagged ppGalNAcT2 expressed in HEK293 cells assessed as association rate by SPR analysis
[4] = biological target: T1, Polypeptide N-acetylgalactosaminyltransferase 2; assay: Inhibition of catalytic activity of human recombinant FLAG-tagged ppGalNAcT2 expressed in HEK293T cells and using 5-FAM labelled-EA2 peptide as substrate incubated for 30 mins by HPLC-based enzyme assay
Homo sapiens = species on record: Homo sapiens; assay: Ratio of IC50 for IC50 for human recombinant FLAG-tagged ppGalNAcT2 W282A mutant to IC50 for human recombinant FLAG-tagged ppGalNAcT2
[5] = biological target: Polypeptide N-acetylgalactosaminyltransferase 2 (Homo sapiens, UniProt Q10471, W282A); assay: Inhibition of catalytic activity of human recombinant FLAG-tagged ppGalNAcT2 W282A mutant expressed in HEK293 cells using EA2 peptide as substrate by HPLC-based enzyme assay
Chain of Polypeptide N-acetylgalactosaminyltransferase 2 (Homo sapiens, UniProt Q10471, W282A) (Q10471 whole entry W282A): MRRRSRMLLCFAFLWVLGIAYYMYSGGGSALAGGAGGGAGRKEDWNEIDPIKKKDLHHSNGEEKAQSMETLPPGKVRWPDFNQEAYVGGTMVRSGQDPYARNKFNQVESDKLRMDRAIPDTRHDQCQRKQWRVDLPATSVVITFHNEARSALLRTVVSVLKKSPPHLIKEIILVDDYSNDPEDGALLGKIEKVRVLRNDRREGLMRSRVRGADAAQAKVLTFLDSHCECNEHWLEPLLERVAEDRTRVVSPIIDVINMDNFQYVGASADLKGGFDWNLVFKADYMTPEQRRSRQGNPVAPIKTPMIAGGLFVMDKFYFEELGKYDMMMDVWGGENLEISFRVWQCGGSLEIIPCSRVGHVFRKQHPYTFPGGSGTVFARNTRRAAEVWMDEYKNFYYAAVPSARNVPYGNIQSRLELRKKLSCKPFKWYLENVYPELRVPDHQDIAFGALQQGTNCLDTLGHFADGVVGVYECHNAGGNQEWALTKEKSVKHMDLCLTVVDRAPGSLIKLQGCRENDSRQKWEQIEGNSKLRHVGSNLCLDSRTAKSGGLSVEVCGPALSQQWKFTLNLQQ

[6] = biological target: T1, Polypeptide N-acetylgalactosaminyltransferase 2; assay: Binding affinity of human recombinant FLAG-tagged ppGalNAcT2 expressed in HEK293 cells assessed as dissociation rate by SPR analysis

T1 sequence (Q10471 whole entry): as the sequence (Q10471 whole entry W282A) above, with A282W counted along it

| SMILES | Kd [1] | inhibition [2] | kon [3] | IC50 [4] | Ratio IC50 (Homo sapiens) | IC50 [5] | koff [6] |
| --- | --- | --- | --- | --- | --- | --- | --- |
| O=c1oc2c(O)c(O)cc3c(=O)oc4c(O)c(O)cc1c4c23 [ELLAGIC ACID] | 371 nM | Active | 2367 M⁻¹ s⁻¹ | 510 nM | 6 | 2930 nM | 8.79 ×10⁻⁴ /s |
| O=c1oc2cc(O)ccc2c2ccccc12 |  |  |  | > 100000 nM |  |  |  |
| O=C(O)c1cc(O)c(O)c(O)c1 [GALLIC ACID] | 924 nM |  | 1454 M⁻¹ s⁻¹ | 1370 nM |  |  | 1.34 ×10⁻³ /s |
| COc1c(O)cc2c(=O)oc3c(OC)c(O)cc4c(=O)oc1c2c34 |  |  |  | > 100000 nM |  |  |  |
| c1cc2ccc3cccc4ccc(c1)c2c34 [PYRENE] |  | inactive |  | > 100000 nM |  |  |  |
